Results reported in PubChem BioAssay (NCI).
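1) Cells in 96-well plates. 2) Compound, 48 h, 5 concentrations. 3) Linear interpolation between surrounding doses. 4) Unreached endpoint = highest concentration. TGI: concentration producing complete growth inhibition.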

Legend:
Assay in all cases: NCI tumour cell line growth inhibition, 48 h
SF-539 CNS = system: SF-539 CNS
IGROV1 ovarian = system: IGROV1 ovarian
OVCAR-3 ovarian = system: OVCAR-3 ovarian
SN12C renal = system: SN12C renal
HOP-62 NSCLC = system: HOP-62 NSCLC
SF-295 CNS = system: SF-295 CNS
HT29 colon = system: HT29 colon
SNB-75 CNS = system: SNB-75 CNS
NCI-H460 lung = system: NCI-H460 lung
ACHN renal = system: ACHN renal
MALME-3M melanoma = system: MALME-3M melanoma
NCI-H23 lung = system: NCI-H23 lung
TK-10 renal = system: TK-10 renal
UACC-257 melanoma = system: UACC-257 melanoma
OVCAR-5 ovarian = system: OVCAR-5 ovarian
SK-OV-3 ovarian = system: SK-OV-3 ovarian
HCT-15 colon = system: HCT-15 colon
PC-3 prostate = system: PC-3 prostate
HL-60(TB) leukemia = system: HL-60(TB) leukemia
CCRF-CEM leukemia = system: CCRF-CEM leukemia
HS 578T breast = system: HS 578T breast
DU-145 prostate = system: DU-145 prostate
SK-MEL-5 melanoma = system: SK-MEL-5 melanoma
NCI/ADR-RES ovarian = system: NCI/ADR-RES ovarian
KM12 colon = system: KM12 colon
SF-268 CNS = system: SF-268 CNS
BT-549 breast = system: BT-549 breast
MDA-N = system: MDA-N
MCF7 breast = system: MCF7 breast
SK-MEL-2 melanoma = system: SK-MEL-2 melanoma
HCT-116 colon = system: HCT-116 colon
UO-31 renal = system: UO-31 renal
OVCAR-4 ovarian = system: OVCAR-4 ovarian
786-0 renal = system: 786-0 renal
SW-620 colon = system: SW-620 colon
SK-MEL-28 melanoma = system: SK-MEL-28 melanoma
OVCAR-8 ovarian = system: OVCAR-8 ovarian
SNB-19 CNS = system: SNB-19 CNS
M14 melanoma = system: M14 melanoma
COLO 205 colon = system: COLO 205 colon
UACC-62 melanoma = system: UACC-62 melanoma
NCI-H522 lung = system: NCI-H522 lung
HCC-2998 colon = system: HCC-2998 colon
MDA-MB-231 breast = system: MDA-MB-231 breast
EKVX NSCLC = system: EKVX NSCLC
MOLT-4 leukemia = system: MOLT-4 leukemia
SR leukemia = system: SR leukemia
CAKI-1 renal = system: CAKI-1 renal
K-562 leukemia = system: K-562 leukemia
A498 renal = system: A498 renal
NCI-H226 lung = system: NCI-H226 lung
RXF 393 renal = system: RXF 393 renal
T-47D breast = system: T-47D breast

Measured: TGI

Cc1ccc(C(=O)Nc2ccc(S(=O)(=O)O)c3cc(S(=O)(=O)O)cc(S(=O)(=O)O)c23)cc1N
> 100 µM: SF-539 CNS | IGROV1 ovarian | OVCAR-3 ovarian | SN12C renal | HOP-62 NSCLC | SF-295 CNS | HT29 colon | SNB-75 CNS | NCI-H460 lung | ACHN renal | MALME-3M melanoma | NCI-H23 lung | TK-10 renal | UACC-257 melanoma | OVCAR-5 ovarian | SK-OV-3 ovarian | HCT-15 colon | PC-3 prostate | HL-60(TB) leukemia | CCRF-CEM leukemia | HS 578T breast | DU-145 prostate | SK-MEL-5 melanoma | NCI/ADR-RES ovarian | KM12 colon | SF-268 CNS | BT-549 breast | MDA-N | MCF7 breast | SK-MEL-2 melanoma | HCT-116 colon | UO-31 renal | OVCAR-4 ovarian | 786-0 renal | SW-620 colon | SK-MEL-28 melanoma | OVCAR-8 ovarian | SNB-19 CNS | M14 melanoma | COLO 205 colon | UACC-62 melanoma | NCI-H522 lung | HCC-2998 colon | MDA-MB-231 breast | EKVX NSCLC | MOLT-4 leukemia | SR leukemia | CAKI-1 renal | K-562 leukemia | A498 renal | NCI-H226 lung | RXF 393 renal | T-47D breast
